Patent publication US20230364051A1, “FORMULATIONS AND METHODS FOR IMPROVING AVIAN HEALTH” (CORNELL UNIVERSITY, priority 2022, published 2023)
Marks after values point to notes of the source that are not given here.

Legend:
[1] = Blood hemoglobin (QuantiChrom Hemoglobin Assay) at hatch after intraamniotic administration; type: in vivo, Gallus gallus; settings: for Average Hb: day 17, blood at hatch
Experimental: Cornish-cross fertile broiler eggs (Gallus gallus, n = 39) were obtained from a commercial hatchery (Moyer’s chicks, Quakertown, PA, USA). The eggs were incubated under optimal conditions at the Cornell University Animal Science Poultry Farm Incubator [18]. […] Each group was then injected with the specific solution (1 mL per egg) with a 21-gauge needle into the amniotic fluid. Treatments in powder form were separately diluted in DI H2O. […] After injection, the injection holes were sealed with cellophane tape and the eggs were placed in hatching baskets such that each treatment was equally represented at each incubator location. Immediately upon hatch (day 21), blood was taken for hemoglobin determination and all chicks were then euthanized by CO2 exposure. The small intestine, pectoral muscle, cecum, and liver were collected, immediately frozen in liquid nitrogen, and then stored in a -80° C. freezer until analysis.
Blood was collected using micro-hematocrit heparinized capillary tubes (Fisher Scientific, Waltham, MA, USA). Blood Hb concentrations were determined spectrophotometrically using the QuantiChromTM Hemoglobin Assay (DIHB-250, BioAssay Systems, Hayward, CA, USA) following the kit manufacturer’s instructions.

[2] = Pectoral muscle glycogen analysis after intraamniotic administration; type: in vivo, Gallus gallus; settings: for Average Glycogen: day 17, pectoral muscle at hatch
Experimental: Cornish-cross fertile broiler eggs (Gallus gallus, n = 39) were obtained from a commercial hatchery (Moyer’s chicks, Quakertown, PA, USA). The eggs were incubated under optimal conditions at the Cornell University Animal Science Poultry Farm Incubator [18]. All animal protocols were approved by Cornell University Institutional Animal Care and Use committee (IACUC #2020-0077). At day 17 of embryonic incubation, eggs containing viable embryos were weighed and divided into 5 groups, with all treatment groups assigned eggs of similar weight frequency distribution. Each group was then injected with the specific solution (1 mL per egg) with a 21-gauge needle into the amniotic fluid. Treatments in powder form were separately diluted in DI H2O. Two treatment groups (1.25, 2.5 wt. %), two controls (H2O and non-injected), and a positive control (5 wt. % inulin) were administered. After injection, the injection holes were sealed with cellophane tape and the eggs were placed in hatching baskets such that each treatment was equally represented at each incubator location. Immediately upon hatch (day 21), blood was taken for hemoglobin determination and all chicks were then euthanized by CO2 exposure. The small intestine, pectoral muscle, cecum, and liver were collected, immediately frozen in liquid nitrogen, and then stored in a -80° C. freezer until analysis.
Glycogen analysis was obtained from pectoralis muscle as previously described. Briefly, the frozen pectoral muscle samples were homogenized in 8 wt. % perchloric acid. Samples were then centrifuged at 12,000 × g for 15 minutes. The supernatant was removed, and 1.0 mL of petroleum ether was added to each tube. After mixing, the petroleum ether fraction was removed and samples from the bottom layer were transferred to a 96-well plate containing 300 µL of color reagent. All samples were read at a wavelength of 450 nm in an ELISA reader and the amount of glycogen was calculated according to a standard curve. The amount of glycogen present in pectoral sample was determined by multiplying the weight of the tissue by the amount of glycogen per 1 g of wet tissue.

[3] = 1.25 wt. % genistein intraamniotic
[4] = 2.5 wt. % genistein intraamniotic

O=c1c(-c2ccc(O)cc2)coc2cc(O)cc(O)c12 [Genistein, genistein]
Average Hb [1, 3]: 14.98 ± 0.45 ^a g/dL
Blood hemoglobin (Hb) levels vs controls ([1]; 1.25 wt. % genistein vs No Injection, H2O and 5 wt. % inulin, p < 0.05): significantly elevated
Average Hb [1, 4]: 14.23 ± 0.79 ^ab g/dL
Blood hemoglobin vs controls ([1]; 2.5 wt. % genistein vs H2O and 5 wt. % inulin): significantly higher
Blood hemoglobin vs control ([1]; 2.5 wt. % genistein vs No Injection): higher
Average Glycogen [2, 3]: 0.008 ± 0.003 ^ab mg/g
Average Glycogen [2, 4]: 0.015 ± 0.004 ^a mg/g
Average glycogen vs control ([2]; genistein treated groups vs no injection, p > 0.05): no significant difference
